Measured values from PMC6502695 (Natural product research, 2018).

Columns and labels:
Assay type in all cases: in vitro ADME
[1] = Sulfating activity of human liver cytosol; settings: mean ± SD, three experiments
human SULT 1A2 = human SULT 1A2 (Homo sapiens, UniProt P50226); assay: Sulfating activity of purified human SULT1A2; settings: substrate 10 μM, mean ± SD, three experiments
human SULT 1C4 = human SULT 1C4 (Homo sapiens, UniProt O75897); assay: Sulfating activity of purified human SULT1C4; settings: substrate 10 μM, mean ± SD, three experiments
Chain of human SULT 1C4 (O75897 whole entry): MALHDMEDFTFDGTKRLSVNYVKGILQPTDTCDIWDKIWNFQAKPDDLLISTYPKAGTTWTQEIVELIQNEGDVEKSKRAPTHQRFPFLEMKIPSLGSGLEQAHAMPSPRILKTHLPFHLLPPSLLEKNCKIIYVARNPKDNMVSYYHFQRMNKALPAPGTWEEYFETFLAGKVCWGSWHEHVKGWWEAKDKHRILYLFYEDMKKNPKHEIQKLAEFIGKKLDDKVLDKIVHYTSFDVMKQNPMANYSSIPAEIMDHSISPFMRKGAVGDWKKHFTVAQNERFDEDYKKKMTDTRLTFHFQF

human SULT 1A1 = human SULT 1A1 (Homo sapiens, UniProt P50225); assay: Sulfating activity of purified human SULT1A1; settings: substrate 10 μM, mean ± SD, three experiments
Chain of human SULT 1A1 (P50225 whole entry): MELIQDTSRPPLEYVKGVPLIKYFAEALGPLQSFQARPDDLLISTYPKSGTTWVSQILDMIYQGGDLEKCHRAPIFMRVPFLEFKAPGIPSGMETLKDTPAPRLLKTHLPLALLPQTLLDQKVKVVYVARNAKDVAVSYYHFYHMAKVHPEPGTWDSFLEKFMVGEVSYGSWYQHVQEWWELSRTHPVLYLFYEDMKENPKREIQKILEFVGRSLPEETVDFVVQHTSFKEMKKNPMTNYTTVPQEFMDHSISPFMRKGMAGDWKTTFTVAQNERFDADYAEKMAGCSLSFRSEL

human SULT 1A3 = human SULT 1A3 (Homo sapiens, UniProt P0DMM9); assay: Sulfating activity of purified human SULT1A3
Chain of human SULT 1A3 (P0DMM9 whole entry): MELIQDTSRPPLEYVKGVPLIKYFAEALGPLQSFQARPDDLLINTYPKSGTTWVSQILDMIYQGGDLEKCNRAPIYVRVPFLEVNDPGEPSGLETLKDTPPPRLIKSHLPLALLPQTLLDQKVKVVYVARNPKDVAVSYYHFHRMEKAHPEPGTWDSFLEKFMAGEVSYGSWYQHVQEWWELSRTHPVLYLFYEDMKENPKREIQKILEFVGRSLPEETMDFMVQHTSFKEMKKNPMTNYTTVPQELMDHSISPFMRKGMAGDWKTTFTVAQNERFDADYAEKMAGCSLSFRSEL

[2] = Sulfating activity of human small intestine cytosol; settings: mean ± SD, three experiments
[3] = SULT 1A3, substrate 10 μM, mean ± SD, three experiments

Chain of human SULT 1A2 (P50226 whole entry): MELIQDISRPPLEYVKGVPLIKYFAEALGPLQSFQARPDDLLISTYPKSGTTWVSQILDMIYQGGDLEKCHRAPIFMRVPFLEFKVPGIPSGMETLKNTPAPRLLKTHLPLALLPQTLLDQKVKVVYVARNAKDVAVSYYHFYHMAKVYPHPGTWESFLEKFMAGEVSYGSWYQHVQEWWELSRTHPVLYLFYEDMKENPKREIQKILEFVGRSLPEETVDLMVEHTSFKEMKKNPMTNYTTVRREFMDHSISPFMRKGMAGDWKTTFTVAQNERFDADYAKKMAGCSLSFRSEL

Row | Specific Activity (nmol substrate sulfated/min/mg purified enzyme) (human SULT 1A3; human, 10 μM) | SMILES | Specific Activity (pmol substrate sulfated/min/mg protein) ([1]; substrate 10 μM) | Specific Activity (pmol substrate sulfated/min/mg protein) ([1]; substrate 50 μM) | Specific Activity (nmol substrate sulfated/min/mg purified enzyme) (human SULT 1A2) | Specific Activity (nmol substrate sulfated/min/mg purified enzyme) (human SULT 1C4) | Specific Activity (nmol substrate sulfated/min/mg purified enzyme) (human SULT 1A1) | Specific Activity (nmol substrate sulfated/min/mg purified enzyme) (human SULT 1A3; [3]) | Specific Activity (pmol substrate sulfated/min/mg protein) ([2]; substrate 10 μM) | Specific Activity (pmol substrate sulfated/min/mg protein) ([2]; substrate 50 μM)
1 |  | O=c1cc(-c2ccc(O)cc2)oc2cc(O)cc(O)c12 [Apigenin] | 20.87 ± 5.39 pmol/min/mg | 25.04 ± 2.20 pmol/min/mg | 7.90 ± 0.32 nmol/min/mg | 3.58 ± 0.09 nmol/min/mg | 10.67 ± 0.99 nmol/min/mg | 6.38 ± 0.40 nmol/min/mg | 88.59 ± 1.07 pmol/min/mg | 113.24 ± 0.32 pmol/min/mg
2 |  | COc1ccc([C@@H]2CC(=O)c3c(O)cc(O)cc3O2)cc1O [Hesperetin] | 139.79 ± 6.87 pmol/min/mg | 181.73 ± 13.25 pmol/min/mg | 28.16 ± 0.38 nmol/min/mg | 13.34 ± 0.49 nmol/min/mg | 44.17 ± 1.16 nmol/min/mg | 29.80 ± 0.74 nmol/min/mg | 458.26 ± 11.82 pmol/min/mg | 643.61 ± 45.12 pmol/min/mg
3 | 14.90 ± 0.15 nmol/min/mg | O=C1C[C@@H](c2ccc(O)cc2)Oc2cc(O)cc(O)c21 [Naringenin] | 135.32 ± 15.67 pmol/min/mg | 156.97 ± 17.94 pmol/min/mg | 17.51 ± 0.31 nmol/min/mg | 11.99 ± 0.17 nmol/min/mg | 24.85 ± 0.65 nmol/min/mg |  | 252.86 ± 13.22 pmol/min/mg | 354.21 ± 13.98 pmol/min/mg
